pIC50: −log10 of the molar value. Where two headings read alike, the source gives them in different places.
How the values were obtained:
H460 = assay: Cell proliferation Assay (Alamar Blue), H460; format: cell-based; conditions: Homo sapiens, NCI-H460, 72 hrs
Procedure: (§1) Used cell lines: HCT116; DU145; A549, H460 In a 96-well plate, 3000 cells/well were plated in 100 µl DMEM containing 10% FBS, 10 mM HEPES and 1% Penicllin/Streptomycin. To each well 50 µl of additional growth media containing the compound with 0.1% DMSO was added. Cells were grown for 72 hrs. at 37°C. 20 µl of Alamar Blue reagent was added and incubated for 3-5 hours until color develops. Plates were read in a SpectraMax Gemini (Molecular Devices, CA) with 544 nm excitation and 590 nm emission wavelength.

DU145 = assay: Cell proliferation Assay (Alamar Blue), DU145; format: cell-based; conditions: Homo sapiens, DU-145, 72 hrs
Procedure: as §1

HCT116 = assay: Cell proliferation Assay (Alamar Blue), HCT116; format: cell-based; conditions: Homo sapiens, HCT-116, 72 hrs
Procedure: as §1

CDC25C = molecular target: T1, CDC25C (Homo sapiens, UniProt P30307); assay: CDC25C Enzyme Assay (hydrolysis of fluorogenic substrate OMFP); format: biochemical
T1 sequence (P30307 1-473): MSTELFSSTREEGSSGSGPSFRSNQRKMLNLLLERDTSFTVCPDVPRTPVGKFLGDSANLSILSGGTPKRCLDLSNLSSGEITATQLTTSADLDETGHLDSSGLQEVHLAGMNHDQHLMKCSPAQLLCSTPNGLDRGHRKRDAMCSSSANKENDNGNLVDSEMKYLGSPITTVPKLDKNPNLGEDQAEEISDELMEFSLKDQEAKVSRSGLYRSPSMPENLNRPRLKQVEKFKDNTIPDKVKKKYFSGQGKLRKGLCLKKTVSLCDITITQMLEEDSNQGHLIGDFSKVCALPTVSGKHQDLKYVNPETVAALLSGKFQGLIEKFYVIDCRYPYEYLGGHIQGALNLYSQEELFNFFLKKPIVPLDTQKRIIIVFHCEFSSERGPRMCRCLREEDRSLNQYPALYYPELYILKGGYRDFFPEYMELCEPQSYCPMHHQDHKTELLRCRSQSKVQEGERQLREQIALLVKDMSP
Procedure: The assay principle was hydrolysis of an artificial fluorogenic substrate of CDC25C, 3-0-methyl-fluorescein monophosphate (OMFP). […] The assay was performed in 96 well microtiter plates (Greiner 96 well black FIA plates) at ambient temperature.
The additions to the wells were as follows: 1 Addition of 4 µl of a DMSO solution of the test compound; controls received 4 µl of DMSO instead 2 Addition of 76 µl assay buffer (assay buffer: 100 mM Tris pH 8.2, 40 mM NaCl. 5 mM DTT, 20% glycerol) 3 Addition of 10 µl CDC25 C (CDC25 C in assay buffer; protein final concentration 1.1 µg/mL) 4 Start of reaction by addition of 10 µl OMFP (substrate in assay buffer; final concentration of OMFP in assay: 90 µM )
Ortho-vanadate was used as a reference inhibitor. Background controls contained buffer, substrate and DMSO, but no enzyme. The microtiter plates were analyzed using a Tecan Ultra fluorescence reader.

A549 = assay: Cell proliferation Assay (Alamar Blue), A549; format: cell-based; conditions: Homo sapiens, 72 hrs
Procedure: as §1, with “wavelength. Table #5: Results assay #2” for “wavelength.”

[1] = tested on: leukemia cell line (P388); assay: In vitro cell assays against a leukemia cell line; format: cell-based; conditions: result in words
PTP1 B = molecular target: T2, PTP1 B (Homo sapiens, UniProt P18031); assay: Phosphatase counter-screen against PTP1 B; format: biochemical
T2 sequence (P18031 1-435): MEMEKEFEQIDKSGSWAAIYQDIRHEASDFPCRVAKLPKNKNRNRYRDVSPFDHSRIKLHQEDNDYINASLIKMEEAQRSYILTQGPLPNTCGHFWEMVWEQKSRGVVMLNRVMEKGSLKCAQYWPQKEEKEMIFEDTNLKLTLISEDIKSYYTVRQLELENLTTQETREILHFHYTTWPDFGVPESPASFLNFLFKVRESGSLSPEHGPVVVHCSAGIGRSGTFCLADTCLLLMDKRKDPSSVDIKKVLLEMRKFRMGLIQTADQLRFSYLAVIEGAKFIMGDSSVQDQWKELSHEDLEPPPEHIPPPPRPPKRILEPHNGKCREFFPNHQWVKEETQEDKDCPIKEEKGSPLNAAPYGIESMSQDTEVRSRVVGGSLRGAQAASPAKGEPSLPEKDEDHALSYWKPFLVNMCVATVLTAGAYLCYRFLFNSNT

CDC25A = molecular target: T3, CDC25A (Homo sapiens, UniProt P30304); assay: CDC25A inhibition assay (sub-type selectivity); format: biochemical; conditions: after 20 minutes of pre-incubation; read-out: IC50 against CDC25A
T3 sequence (P30304 1-524): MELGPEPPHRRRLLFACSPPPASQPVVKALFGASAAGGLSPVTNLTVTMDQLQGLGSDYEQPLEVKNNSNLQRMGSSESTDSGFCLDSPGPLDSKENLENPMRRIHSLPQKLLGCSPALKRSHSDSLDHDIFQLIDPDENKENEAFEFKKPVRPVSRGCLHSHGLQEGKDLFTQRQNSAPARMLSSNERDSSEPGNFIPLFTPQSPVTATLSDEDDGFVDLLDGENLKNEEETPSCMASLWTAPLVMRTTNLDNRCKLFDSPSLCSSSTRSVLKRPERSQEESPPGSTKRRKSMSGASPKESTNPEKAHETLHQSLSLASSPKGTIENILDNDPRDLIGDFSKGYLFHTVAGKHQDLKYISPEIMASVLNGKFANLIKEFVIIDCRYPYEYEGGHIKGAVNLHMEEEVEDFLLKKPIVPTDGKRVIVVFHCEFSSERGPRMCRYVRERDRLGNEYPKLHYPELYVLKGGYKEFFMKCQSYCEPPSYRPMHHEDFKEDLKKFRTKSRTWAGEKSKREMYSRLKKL
Description: (§2) The compound of example 5 was thoroughly characterized towards its selectivity for CDC25 sub-types A, B, and C.

CDC25B = molecular target: T4, CDC25B (Homo sapiens, UniProt P30305); assay: CDC25B inhibition assay (sub-type selectivity); format: biochemical; conditions: after 20 minutes of pre-incubation; read-out: IC50 against CDC25B
T4 sequence (P30305 1-580): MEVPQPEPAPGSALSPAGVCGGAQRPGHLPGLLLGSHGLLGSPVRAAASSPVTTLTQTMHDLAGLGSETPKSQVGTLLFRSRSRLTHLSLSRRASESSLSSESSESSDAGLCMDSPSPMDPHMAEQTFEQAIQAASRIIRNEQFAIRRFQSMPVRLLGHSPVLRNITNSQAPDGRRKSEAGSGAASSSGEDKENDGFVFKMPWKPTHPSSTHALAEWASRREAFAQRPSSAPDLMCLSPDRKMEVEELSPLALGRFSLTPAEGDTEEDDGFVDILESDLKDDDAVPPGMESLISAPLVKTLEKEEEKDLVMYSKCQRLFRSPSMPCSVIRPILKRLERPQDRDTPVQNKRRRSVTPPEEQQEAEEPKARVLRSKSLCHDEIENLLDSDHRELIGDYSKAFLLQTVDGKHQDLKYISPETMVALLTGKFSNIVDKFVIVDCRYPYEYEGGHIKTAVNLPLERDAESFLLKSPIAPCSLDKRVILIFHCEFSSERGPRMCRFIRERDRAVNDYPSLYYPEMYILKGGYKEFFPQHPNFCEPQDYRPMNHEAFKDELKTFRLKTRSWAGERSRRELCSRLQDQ
Description: as §2

LAR (PTPRF) = LAR (PTPRF) (Homo sapiens, UniProt P10586); assay: Phosphatase counter-screen against LAR (PTPRF); format: biochemical
Sequence of LAR (PTPRF) (P10586 30-1907, species assumed): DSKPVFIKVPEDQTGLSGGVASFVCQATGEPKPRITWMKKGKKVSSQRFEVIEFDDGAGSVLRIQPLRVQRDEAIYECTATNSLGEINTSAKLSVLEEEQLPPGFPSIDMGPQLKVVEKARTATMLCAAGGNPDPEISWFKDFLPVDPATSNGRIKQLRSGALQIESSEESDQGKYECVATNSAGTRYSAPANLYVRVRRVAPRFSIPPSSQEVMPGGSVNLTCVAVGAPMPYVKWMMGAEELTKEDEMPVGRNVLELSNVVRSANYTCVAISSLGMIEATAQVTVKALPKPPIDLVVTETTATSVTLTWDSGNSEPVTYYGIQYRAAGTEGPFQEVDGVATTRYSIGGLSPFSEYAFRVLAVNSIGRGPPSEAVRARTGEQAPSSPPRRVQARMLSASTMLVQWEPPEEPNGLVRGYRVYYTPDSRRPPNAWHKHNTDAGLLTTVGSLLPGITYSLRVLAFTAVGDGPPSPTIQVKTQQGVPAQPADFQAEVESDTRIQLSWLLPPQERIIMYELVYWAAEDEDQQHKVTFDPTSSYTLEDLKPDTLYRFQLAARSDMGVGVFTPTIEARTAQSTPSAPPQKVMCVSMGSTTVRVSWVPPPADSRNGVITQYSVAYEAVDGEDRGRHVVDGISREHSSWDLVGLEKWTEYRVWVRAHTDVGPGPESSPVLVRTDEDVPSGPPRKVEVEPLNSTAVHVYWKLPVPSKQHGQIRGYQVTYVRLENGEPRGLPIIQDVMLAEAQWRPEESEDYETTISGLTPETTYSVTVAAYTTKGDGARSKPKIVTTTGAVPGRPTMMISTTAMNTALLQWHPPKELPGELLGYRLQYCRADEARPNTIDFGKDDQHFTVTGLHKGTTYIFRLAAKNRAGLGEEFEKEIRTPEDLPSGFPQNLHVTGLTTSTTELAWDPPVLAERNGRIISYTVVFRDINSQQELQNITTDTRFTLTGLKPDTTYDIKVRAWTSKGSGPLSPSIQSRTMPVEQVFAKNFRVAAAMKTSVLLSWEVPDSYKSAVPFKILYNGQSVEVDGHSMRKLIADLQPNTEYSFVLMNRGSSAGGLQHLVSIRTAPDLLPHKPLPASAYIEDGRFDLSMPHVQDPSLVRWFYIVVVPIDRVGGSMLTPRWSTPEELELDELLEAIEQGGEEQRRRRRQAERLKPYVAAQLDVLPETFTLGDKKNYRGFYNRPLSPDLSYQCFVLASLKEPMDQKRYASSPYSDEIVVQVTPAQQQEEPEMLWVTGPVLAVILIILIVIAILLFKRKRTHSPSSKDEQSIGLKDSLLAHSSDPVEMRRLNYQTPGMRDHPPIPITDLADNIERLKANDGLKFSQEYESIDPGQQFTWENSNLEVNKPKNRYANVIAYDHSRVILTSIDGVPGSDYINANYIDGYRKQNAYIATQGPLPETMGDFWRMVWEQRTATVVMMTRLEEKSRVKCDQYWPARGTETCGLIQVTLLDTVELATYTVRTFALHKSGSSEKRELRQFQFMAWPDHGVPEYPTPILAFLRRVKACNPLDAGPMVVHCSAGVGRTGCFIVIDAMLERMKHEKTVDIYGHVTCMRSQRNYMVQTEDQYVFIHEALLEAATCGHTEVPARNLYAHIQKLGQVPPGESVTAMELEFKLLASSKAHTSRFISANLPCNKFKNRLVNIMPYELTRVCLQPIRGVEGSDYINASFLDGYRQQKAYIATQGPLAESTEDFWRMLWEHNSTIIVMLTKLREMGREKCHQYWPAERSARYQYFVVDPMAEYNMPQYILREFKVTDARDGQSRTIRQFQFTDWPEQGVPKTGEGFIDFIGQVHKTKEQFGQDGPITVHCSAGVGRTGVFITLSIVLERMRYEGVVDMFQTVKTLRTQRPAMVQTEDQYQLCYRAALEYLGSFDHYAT

CDC25 = conditions: literature reports; cited from earlier work
[2] = OMFP 90 µM, ambient temperature, assay run time 20 minutes, read-out: IC50

## Cc1cc(=O)n2c3c(c4c(cc13)c(CO)cc(=O)n4C)OC2 [Example 1, nybomycin]
H460
  pIC50: 6.64
DU145
  pIC50: 6.14
HCT116
  pIC50: 6.14
CDC25C; [2]
  pIC50: < 4.70

## Cc1cc(=O)n(C)c2c3c4c(cc12)c(C)cc(=O)n4CO3 [Example 2, deoxynybomycin]
CDC25C; [2]
  pIC50: < 5.00

## Cc1cc(=O)n(C)c2c3c4c(c(C)cc(=O)n4CO3)c(O)c12 [Example 3, 7-hydroxy-deoxynybomycin]
CDC25C; [2]
  pIC50: 5.30

## Cn1c(=O)cc(CO)c2cc3c(CO)cc(=O)n4c3c(c21)OC4 [Example 4, 6'-hydroxynybomycin]
CDC25C; [2]
  pIC50: 4.85

## Cc1cc(=O)[nH]c2c(O)c3c(cc12)c(C)cc(=O)n3C [Example 5, 10-hydroxy-1,4,6-trimethylpyndo[3,2-g]quino-line-2,8(1H,9H)-dione]
A549
  pIC50: 7.00
H460
  pIC50: > 6.52
[1]
  potential as inhibitors of CDC25 compared with the comparative examples (1, 2, 3, 4, 6 and 9): much higher potential
PTP1 B
  selectivity for CDC25 subtypes in comparison to PTP1 B: 13 fold
DU145
  pIC50: 7.00
HCT116
  pIC50: 7.00
CDC25A
  pIC50: 6.82
CDC25C; after 20 minutes of pre-incubation, read-out: IC50 against CDC25C
  pIC50: 6.74
CDC25B
  pIC50: 6.64
LAR (PTPRF)
  selectivity for CDC25 subtypes in comparison to LAR: 100 fold

## Cc1cc(=O)n(C)c2c(O)c3c(cc12)c(C)cc(=O)n3C [Example 6, 10-hydroxy-1,4,6,9-tetramethylpyrido[3,2-g]-quinoline-2,8(1H,9H)-dione]
A549
  pIC50: > 5.00
H460
  pIC50: > 5.00
DU145
  pIC50: 5.52
HCT116
  pIC50: 5.52
CDC25C; [2]
  pIC50: 4.84

## Cc1cc(=O)[nH]c2c(O)c3c(cc12)c(CO)cc(=O)n3C [Example 7, 10-hydroxy-4-(hydroxymethyl)-1,6-dimethyl-pyrido[3,2-g]quinoline-2,8(1H,9H)-dione]
[1]
  potential as inhibitors of CDC25 compared with the comparative examples (1, 2, 3, 4, 6 and 9): much higher potential
CDC25C; [2]
  pIC50: 6.03

## Cc1cc(=O)n(C)c2c(O)c3c(cc12)c(C)cc(=O)n3O [Example 8, 1,10-dihydroxy-4,6,9-trimethylpyrido[3,2-g]-quinoline-2,8(1H,9H)-dione]
[1]
  potential as inhibitors of CDC25 compared with the comparative examples (1, 2, 3, 4, 6 and 9): much higher potential
CDC25C; [2]
  pIC50: 6.28

## CCCc1c2c([nH]c(=O)c1C)C(=O)c1[nH]c(=O)c(C)c(CCC)c1C2=O [Example 9, 3,7-dimethyl-4,6-dipropylpyrido[3,2-g]-qujnoline-2,5,8,10(1H,9H)-tetraone; Diazaquinomycin A]
CDC25C; [2]
  pIC50: 3.65

## CCCc1c(C)c(=O)[nH]c2c(O)c3[nH]c(=O)c(C)c(CCC)c3cc12 [Example 10, 10-hydroxy-3,7-dimethyl-4,6-dipropylpyrido-[3,2-g]quinoline-2,8(1H,9H)-dione]
[1]
  potential as inhibitors of CDC25 compared with the comparative examples (1, 2, 3, 4, 6 and 9): much higher potential
CDC25C; [2]
  pIC50: 6.07

## C=C(C)CCC[C@]1(C)CCC[C@@H]2C1=CC[C@@H](C)[C@@]2(C)C[C@@H](O)C1=CC(=O)O[C@H]1O [dysidiolide]
CDC25
  inhibit CDC25: micromolar levels

## coscinosulfate
CDC25
  inhibit CDC25: micromolar levels

## nocardione
CDC25
  inhibit CDC25: micromolar levels

From patent publication EP2130831A1, “CDC25 inhibitors” (InterMed Discovery GmbH, priority 2008, dated 2009)
